The results in this text go back to ChEMBL document CHEMBL1201862, “PubChem BioAssay data set” (2004).

Structures are written as SMILES. Activity calls are given as the source filed them.

In test [1] the target is Beta-lactamase (Salmonella choleraesuis (strain SC-B67), UniProt Q5J463).
Another test has as its target Prothrombin (Bos taurus, UniProt P00735). Put plainly: thrombin protease inhibitors – biochemical, fluorescence polarization, uHTS hits, dose response (AID 602369). It counts as functional.
In test [2] the target is 26S proteasome non-ATPase regulatory subunit 14 (Homo sapiens, UniProt O00487). Briefly: inhibition of proteasome subunit RPN11 – biochemical, fluorescence polarization, uHTS hits, confirmation (AID 602368). In kind it is functional.
26S proteasome non-ATPase regulatory subunit 14, sequence (O00487 whole entry): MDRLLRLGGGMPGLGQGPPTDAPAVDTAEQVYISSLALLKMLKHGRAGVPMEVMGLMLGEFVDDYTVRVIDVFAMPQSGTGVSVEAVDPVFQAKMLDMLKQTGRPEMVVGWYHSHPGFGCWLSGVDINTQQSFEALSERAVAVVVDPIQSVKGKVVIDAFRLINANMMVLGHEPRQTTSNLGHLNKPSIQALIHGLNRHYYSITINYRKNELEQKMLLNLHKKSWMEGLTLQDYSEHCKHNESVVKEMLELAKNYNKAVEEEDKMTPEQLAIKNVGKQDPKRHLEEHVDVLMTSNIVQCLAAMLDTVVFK
Test [3] can be described thus: mRNA 3' processing disruption, beta-gal signal increase – luminescence, S. cerevisiae SKY197-pL101, dose response (AID 2525). It counts as functional, cell-based.
The target of test [4] is Beta-lactamase (Pseudomonas aeruginosa, UniProt Q79MP6).
Beta-lactamase (Pseudomonas aeruginosa, UniProt Q79MP6), sequence (Q79MP6 whole entry): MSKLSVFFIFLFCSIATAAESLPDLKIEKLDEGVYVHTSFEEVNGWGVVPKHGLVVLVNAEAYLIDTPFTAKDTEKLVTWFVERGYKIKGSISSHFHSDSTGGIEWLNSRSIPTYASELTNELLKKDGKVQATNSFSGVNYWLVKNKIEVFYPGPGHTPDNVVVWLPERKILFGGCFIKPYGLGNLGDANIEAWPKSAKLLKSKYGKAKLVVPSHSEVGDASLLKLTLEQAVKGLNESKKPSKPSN
The nature of test [5]: Luminescence Cell-Based Dose Confirmation HTS to Identify Inhibitors of Polyadenylation. It counts as functional.
Test [6] concerns the target 72 kDa type IV collagenase (Homo sapiens, UniProt P08253). Briefly: Dose Response validation of uHTS RPN11 inhibitor hits using a MMP-2 Fluorescence assay. In kind it is functional.
In test [7] the target is Protein disulfide-isomerase (Homo sapiens, UniProt P07237). Put plainly: inhibition of PDI-driven insulin aggregation – biochemical, turbidity, absorbance, cherry-picked samples, dose response (AID 602350). In kind it is functional.
Protein disulfide-isomerase, sequence (P07237 whole entry): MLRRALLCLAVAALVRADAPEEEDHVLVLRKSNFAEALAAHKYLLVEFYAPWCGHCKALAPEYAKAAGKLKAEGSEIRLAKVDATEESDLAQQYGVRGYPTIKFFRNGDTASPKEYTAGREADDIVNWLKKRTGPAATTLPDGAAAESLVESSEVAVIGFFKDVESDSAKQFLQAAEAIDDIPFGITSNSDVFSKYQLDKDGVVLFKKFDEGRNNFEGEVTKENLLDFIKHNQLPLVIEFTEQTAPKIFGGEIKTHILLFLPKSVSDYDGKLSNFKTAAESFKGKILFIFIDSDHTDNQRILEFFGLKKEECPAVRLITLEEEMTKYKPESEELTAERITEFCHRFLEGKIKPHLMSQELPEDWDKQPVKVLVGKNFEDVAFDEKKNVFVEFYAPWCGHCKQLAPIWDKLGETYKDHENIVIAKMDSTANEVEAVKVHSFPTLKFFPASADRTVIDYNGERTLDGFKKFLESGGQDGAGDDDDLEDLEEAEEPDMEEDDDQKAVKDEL
Test [8] in a line: Mcl1-dependent cancer cell viability – HMC-1-8 cells, luminescence, dry powder, selectivity assay for A1 inhibitor project, dose response (AID 504415). It counts as functional, cell-based. As to conditions: Homo sapiens.
The target in test [9] is T1, Sentrin-specific protease 6 (Homo sapiens, UniProt Q9GZR1).
T1 sequence (Q9GZR1 whole entry): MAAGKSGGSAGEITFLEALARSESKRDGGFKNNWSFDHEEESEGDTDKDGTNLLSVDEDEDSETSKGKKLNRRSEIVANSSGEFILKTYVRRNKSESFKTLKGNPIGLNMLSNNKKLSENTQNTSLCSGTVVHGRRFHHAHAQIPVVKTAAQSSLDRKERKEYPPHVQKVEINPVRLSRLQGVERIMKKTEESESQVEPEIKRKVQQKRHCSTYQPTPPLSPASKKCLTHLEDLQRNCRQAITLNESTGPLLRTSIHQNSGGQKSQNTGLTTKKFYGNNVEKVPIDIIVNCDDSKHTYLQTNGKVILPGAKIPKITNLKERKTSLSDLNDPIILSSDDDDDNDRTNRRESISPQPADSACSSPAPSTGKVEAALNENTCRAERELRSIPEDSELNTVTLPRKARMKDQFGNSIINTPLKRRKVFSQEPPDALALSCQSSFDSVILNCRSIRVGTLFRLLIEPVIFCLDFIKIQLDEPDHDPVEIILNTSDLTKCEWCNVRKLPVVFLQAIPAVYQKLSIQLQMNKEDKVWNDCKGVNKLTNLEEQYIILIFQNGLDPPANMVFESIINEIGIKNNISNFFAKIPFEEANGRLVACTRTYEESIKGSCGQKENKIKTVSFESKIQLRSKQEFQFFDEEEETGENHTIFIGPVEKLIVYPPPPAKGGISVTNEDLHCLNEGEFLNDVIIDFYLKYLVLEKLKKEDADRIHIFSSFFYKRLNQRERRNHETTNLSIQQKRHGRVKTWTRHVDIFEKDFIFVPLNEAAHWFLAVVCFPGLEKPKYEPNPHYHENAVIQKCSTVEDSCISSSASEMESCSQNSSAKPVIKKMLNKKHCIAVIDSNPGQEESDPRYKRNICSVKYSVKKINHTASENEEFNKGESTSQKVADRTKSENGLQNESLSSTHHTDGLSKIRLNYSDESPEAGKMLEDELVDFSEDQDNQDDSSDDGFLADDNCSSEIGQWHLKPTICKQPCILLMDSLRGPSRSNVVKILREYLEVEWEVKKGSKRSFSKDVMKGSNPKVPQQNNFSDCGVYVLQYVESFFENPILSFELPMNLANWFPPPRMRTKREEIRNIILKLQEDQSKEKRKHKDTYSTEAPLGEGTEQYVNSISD
Put plainly: SAR Analysis of small molecule inhibitors of Sentrin-specific protease 6 (SENP6) using a Luminescent assay. [Related pubchem assays (depositor defined):AID2582, AID2599]. In kind it is functional.

For another test, the target named is T2, Caspase-3 (Homo sapiens, UniProt P42574).
T2 sequence (P42574 whole entry): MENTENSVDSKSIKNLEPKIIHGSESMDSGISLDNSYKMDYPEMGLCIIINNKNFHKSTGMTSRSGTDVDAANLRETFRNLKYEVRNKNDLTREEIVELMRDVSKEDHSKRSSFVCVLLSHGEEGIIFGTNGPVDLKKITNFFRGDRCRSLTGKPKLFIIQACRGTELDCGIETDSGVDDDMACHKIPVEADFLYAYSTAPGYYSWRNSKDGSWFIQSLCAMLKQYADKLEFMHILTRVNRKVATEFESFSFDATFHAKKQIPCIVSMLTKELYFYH
Put plainly: SAR Analysis of small molecule inhibitors of Sentrin-specific proteases (SENPs) using a Caspase-3 Selectivity assay. [Related pubchem assays (depositor defined):AID2540, AID2599, AID434973, AID489001]. It counts as functional.

Test [10] addresses T3, Sentrin-specific protease 7 (Homo sapiens, UniProt Q9BQF6).
T3 sequence (Q9BQF6 whole entry): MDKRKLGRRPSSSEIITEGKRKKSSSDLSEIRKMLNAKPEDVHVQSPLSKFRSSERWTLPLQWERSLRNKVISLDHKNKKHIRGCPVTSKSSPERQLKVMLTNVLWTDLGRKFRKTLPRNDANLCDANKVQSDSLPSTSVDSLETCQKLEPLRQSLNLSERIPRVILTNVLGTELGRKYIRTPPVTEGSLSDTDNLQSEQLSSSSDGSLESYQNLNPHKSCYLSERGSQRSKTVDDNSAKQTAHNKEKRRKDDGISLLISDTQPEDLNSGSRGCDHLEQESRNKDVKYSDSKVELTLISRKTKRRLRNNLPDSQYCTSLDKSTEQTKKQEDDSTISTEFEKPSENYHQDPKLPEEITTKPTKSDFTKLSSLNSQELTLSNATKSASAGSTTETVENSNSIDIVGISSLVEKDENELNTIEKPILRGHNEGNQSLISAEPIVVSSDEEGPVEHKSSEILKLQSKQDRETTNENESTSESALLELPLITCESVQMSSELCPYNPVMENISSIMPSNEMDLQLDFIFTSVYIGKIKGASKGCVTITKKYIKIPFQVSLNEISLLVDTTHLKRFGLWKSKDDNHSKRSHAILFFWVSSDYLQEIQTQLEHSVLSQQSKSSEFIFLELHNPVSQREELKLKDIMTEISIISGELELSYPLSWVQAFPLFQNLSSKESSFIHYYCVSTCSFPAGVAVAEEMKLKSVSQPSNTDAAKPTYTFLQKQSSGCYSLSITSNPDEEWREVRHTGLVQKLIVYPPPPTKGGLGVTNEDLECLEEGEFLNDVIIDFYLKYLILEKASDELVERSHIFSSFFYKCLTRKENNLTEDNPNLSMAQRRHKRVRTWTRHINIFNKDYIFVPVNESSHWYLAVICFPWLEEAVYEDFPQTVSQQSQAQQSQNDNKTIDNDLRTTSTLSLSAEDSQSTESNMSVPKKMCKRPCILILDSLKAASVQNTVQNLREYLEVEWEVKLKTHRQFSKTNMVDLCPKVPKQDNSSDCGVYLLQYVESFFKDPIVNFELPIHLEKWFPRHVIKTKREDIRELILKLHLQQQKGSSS
Briefly: inhibition of human SENP7 cleavage activity – biochemical, luminescence, SAR follow-up (AID 504497). It counts as functional.

Test [11] has as its target T4, Sentrin-specific protease 8 (Homo sapiens, UniProt Q96LD8).
T4 sequence (Q96LD8 whole entry): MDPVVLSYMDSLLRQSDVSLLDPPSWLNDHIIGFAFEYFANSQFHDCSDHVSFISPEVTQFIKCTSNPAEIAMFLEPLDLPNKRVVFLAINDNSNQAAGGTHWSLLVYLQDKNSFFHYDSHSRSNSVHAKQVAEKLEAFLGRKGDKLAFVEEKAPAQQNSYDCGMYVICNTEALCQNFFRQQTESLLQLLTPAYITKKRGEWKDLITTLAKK
Put plainly: inhibition of human SENP8 cleavage activity – biochemical, luminescence, SAR follow-up (AID 504501). In kind it is functional.

Test [12] has as its target Multidrug resistance protein CDR1 (Candida albicans, UniProt P43071). Put plainly: inhibition of Nile Red efflux via Candida CDR1 – S. cerevisiae AD1-8u, singleplex, Cherry Pick1 hits, dose response (AID 588606). It counts as functional.
Test [13] deals with Voltage-dependent T-type calcium channel subunit alpha-1H (Homo sapiens, UniProt O95180). It counts as functional.
Test [14] has as its target DNA dC->dU-editing enzyme APOBEC-3G (Homo sapiens, UniProt Q9HC16). Put plainly: inhibition of APOBEC3G ssDNA deamination – biochemical, fluorescence, single-stranded DNA substrate, SAR follow-up (AID 602136). The following applies: read-out: IC50_Mean. It counts as functional.
Test [15] has as its target DNA dC->dU-editing enzyme APOBEC-3A (Homo sapiens, UniProt P31941). Briefly: SAR analysis of small molecule inhibitors of APOBEC3A DNA Deaminase via a fluorescence-based single-stranded DNA deaminase assay. It counts as functional. As to conditions: read-out: IC50_Mean.
Test [16] concerns HEK293. Put plainly: optical interference in Abeta FP readout, dose response, artefact control for IDE activator project, biochemical, fluorescence polarization (AID 588442). As to conditions: Homo sapiens. It counts as functional, cell-based.
In test [17] the target is T5, Insulin-degrading enzyme (Homo sapiens, UniProt P14735). Put plainly: cellular IDE activation of Abeta substrate cleavage – fluorescence polarization, HEK cells, dose response (AID 588439). It counts as functional, cell-based.
T5 sequence (P14735 whole entry): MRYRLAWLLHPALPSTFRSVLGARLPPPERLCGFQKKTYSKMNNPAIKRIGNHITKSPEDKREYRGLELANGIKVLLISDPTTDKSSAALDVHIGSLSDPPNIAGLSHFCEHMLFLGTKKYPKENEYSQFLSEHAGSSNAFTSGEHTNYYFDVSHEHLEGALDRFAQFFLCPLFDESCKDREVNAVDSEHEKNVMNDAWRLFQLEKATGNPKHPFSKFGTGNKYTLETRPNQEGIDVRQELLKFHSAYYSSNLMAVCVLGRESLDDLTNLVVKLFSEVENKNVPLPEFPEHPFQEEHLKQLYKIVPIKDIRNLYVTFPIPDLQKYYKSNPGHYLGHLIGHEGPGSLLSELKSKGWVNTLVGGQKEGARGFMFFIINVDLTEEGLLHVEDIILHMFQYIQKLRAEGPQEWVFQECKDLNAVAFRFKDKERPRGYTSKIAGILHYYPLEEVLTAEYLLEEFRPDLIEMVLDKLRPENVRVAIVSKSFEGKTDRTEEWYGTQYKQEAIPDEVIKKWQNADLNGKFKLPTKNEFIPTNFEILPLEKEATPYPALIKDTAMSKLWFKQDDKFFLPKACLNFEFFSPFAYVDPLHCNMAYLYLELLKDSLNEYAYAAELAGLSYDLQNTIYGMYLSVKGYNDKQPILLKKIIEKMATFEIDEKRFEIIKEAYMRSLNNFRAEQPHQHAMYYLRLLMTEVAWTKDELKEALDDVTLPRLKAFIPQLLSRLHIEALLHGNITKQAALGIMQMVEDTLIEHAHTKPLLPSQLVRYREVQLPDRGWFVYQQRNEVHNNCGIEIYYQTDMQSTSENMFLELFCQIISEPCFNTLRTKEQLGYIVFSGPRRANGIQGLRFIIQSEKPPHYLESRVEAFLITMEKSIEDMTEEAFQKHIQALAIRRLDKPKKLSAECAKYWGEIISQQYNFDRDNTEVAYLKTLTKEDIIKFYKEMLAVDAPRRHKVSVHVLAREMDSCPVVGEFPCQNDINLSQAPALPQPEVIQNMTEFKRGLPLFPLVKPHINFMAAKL
Test [18] concerns HEK293. Put plainly: membrane integrity loss in HEK cells – cell-based, fluorescence, cytotoxicity control for IDE activator project, dose response (AID 588440).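 Also: cytotoxicity by LDH release measuring loss of membrane integrity.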 In kind it is functional. The following applies: Homo sapiens.
In test [19] the target is T5, Insulin-degrading enzyme. Put plainly: recombinant IDE activation, cell-free – biochemical, fluorescence polarization, counter-screen for IDE activator project, dose response (AID 588681).

Multidrug resistance protein CDR1, sequence (P43071 whole entry, looked up): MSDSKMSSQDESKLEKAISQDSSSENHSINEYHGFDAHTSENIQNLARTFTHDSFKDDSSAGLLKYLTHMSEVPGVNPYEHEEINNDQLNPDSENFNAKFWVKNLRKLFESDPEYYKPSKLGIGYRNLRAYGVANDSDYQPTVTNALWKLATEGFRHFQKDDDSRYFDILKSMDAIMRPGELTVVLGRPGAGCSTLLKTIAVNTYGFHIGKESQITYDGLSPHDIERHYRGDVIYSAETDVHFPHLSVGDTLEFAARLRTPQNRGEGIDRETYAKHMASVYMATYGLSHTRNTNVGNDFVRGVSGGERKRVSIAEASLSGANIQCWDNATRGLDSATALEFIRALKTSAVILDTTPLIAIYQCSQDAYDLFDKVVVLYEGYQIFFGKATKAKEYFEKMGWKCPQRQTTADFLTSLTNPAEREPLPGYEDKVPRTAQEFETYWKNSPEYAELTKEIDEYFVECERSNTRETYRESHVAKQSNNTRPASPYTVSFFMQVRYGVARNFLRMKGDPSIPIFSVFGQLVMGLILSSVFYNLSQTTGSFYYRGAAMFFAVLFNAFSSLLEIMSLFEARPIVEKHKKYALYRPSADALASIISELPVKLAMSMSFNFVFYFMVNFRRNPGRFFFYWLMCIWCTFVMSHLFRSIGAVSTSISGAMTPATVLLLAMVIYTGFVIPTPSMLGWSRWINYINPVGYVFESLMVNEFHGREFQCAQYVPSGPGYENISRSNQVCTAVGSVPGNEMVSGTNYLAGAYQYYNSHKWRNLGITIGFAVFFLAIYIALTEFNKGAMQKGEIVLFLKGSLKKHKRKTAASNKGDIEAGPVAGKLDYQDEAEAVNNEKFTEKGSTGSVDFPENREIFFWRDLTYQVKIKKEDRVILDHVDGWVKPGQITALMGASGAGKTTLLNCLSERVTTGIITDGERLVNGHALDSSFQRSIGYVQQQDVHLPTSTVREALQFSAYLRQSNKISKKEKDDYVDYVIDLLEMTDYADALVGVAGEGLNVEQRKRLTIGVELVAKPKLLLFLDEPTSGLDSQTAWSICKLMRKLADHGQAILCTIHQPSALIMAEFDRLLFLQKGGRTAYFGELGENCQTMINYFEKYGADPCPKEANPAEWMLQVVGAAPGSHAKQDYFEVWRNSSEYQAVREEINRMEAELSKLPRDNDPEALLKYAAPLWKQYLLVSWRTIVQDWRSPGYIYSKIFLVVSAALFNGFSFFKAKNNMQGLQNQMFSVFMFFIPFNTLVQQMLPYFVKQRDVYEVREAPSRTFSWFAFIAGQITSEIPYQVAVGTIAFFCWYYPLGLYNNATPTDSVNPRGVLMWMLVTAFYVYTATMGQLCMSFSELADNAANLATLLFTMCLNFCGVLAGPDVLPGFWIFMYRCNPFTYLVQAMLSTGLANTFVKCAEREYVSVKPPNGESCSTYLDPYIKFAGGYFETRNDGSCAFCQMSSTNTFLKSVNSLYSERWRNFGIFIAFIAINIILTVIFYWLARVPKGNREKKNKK
Beta-lactamase (Salmonella choleraesuis (strain SC-B67), UniProt Q5J463), sequence (Q5J463 whole entry): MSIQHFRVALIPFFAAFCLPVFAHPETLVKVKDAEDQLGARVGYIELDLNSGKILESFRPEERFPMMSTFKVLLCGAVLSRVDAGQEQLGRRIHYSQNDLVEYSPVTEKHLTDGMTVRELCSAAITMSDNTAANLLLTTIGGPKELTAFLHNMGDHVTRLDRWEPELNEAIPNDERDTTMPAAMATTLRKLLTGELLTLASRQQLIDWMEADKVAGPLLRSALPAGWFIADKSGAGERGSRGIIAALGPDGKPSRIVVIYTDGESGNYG
DNA dC->dU-editing enzyme APOBEC-3G, sequence (Q9HC16 whole entry): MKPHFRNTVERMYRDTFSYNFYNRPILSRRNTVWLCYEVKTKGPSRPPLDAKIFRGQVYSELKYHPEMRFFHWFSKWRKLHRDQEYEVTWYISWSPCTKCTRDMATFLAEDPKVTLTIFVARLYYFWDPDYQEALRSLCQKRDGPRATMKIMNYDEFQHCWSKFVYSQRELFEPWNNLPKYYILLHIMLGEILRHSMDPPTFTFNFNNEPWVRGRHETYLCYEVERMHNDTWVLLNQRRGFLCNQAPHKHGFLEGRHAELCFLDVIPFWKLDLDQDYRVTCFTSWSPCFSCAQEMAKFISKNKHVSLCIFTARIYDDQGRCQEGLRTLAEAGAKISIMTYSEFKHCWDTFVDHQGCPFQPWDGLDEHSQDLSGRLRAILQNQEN
72 kDa type IV collagenase, sequence (P08253 whole entry): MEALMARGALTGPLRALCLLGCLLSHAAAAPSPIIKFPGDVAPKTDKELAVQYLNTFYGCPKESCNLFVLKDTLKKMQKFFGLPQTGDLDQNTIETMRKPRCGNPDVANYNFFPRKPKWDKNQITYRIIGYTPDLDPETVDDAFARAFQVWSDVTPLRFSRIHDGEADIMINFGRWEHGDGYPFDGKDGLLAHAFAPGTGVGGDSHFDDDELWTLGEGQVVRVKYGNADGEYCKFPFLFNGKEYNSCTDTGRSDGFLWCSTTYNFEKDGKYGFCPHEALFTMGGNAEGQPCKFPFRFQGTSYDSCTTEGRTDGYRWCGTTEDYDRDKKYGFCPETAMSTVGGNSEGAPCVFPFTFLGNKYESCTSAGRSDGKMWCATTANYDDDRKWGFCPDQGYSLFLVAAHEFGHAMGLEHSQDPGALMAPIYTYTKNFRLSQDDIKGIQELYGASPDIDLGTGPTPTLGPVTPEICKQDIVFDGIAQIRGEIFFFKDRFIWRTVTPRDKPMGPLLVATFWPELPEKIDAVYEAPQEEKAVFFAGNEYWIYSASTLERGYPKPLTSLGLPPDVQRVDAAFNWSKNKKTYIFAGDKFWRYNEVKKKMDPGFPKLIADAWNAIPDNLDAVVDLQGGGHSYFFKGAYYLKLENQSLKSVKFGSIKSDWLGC

With `COc1cc(/C=C2/SC(=S)N(Cc3ccccc3)C2=O)cc(OC)c1O`, the IC50 at Beta-lactamase [1] is > 59.6 µM (inactive); at Prothrombin, 2.9 µM (active); in [2], 2.36 µM (active); on Beta-lactamase [4], > 59.6 µM (inactive); in test [6] it was > 100 µM (inactive). The EC50 in test [3] was 31.9 µM (active); in [5], 27.8 µM (inconclusive).
Consider `CCOC(=O)c1c(CNCCN(CC)CC)n(C)c2cc(Br)c(OC)cc12`, for which, in [7], the AC50 was 0.376 µM (active).
As to `O=[N+]([O-])c1cnc2ccccc2c1Sc1ccccc1`, the AC50 in test [8] is 39.2 µM (active).
With `CCC(=O)c1ccc(OCC(=O)N(c2ccccc2)c2nc(-c3ccccc3)ns2)cc1`, the IC50 in test [9] is 65.1 µM (active); on Caspase-3, > 99 µM (inactive); in test [10], 32 µM (active); in [11], 96.7 µM (active).
Take `O=C(CSc1nnc(Cc2cccs2)n1Cc1ccco1)Nc1ccc(Br)cc1`: the results for the EC50 in test [12] and in test [13] were 0.009 µM (active) and 3.12 µM (active), respectively.
`CC(=O)c1c(C)[nH]c(C(=O)CN(C)CC(=O)Nc2ccc(F)c(F)c2F)c1C`: the IC50 in test [14] and in [15] was > 99 µM (inactive) in each case.
On to `O=C(O)c1ccccc1Nc1ccc([N+](=O)[O-])c2nonc12`, for which the EC50 with HEK293 [16], on Insulin-degrading enzyme [17] and at Insulin-degrading enzyme [19] was > 54.7 µM (inactive) in each case. For the same compound, the IC50 with HEK293 [18] is > 89.2 µM (inactive).
